System: T1, βgal5
T1 construct: gene AUR.contig-100_1620_7; GH42; N-terminal 6-His with TEV site (pET-TEV), E. coli BL21(DE3), Ni-NTA
Test: nitrophenol release, absorbance […] nm
Type: biochemical
Conditions: buffer Z (phosphate, KCl, MgSO4), 30 °C; 2.5-20 mM substrate; read-out: Km (mM) / ONPG

Km: 14.5 mM
SMILES: O=[N+]([O-])c1ccccc1O[C@@H]1O[C@H](CO)[C@H](O)[C@H](O)[C@H]1O [2-nitrophenyl-β-D-galactopyranoside]

Reference: PMC7823827, “β-Galactosidases from a Sequence-Based Metagenome: Cloning, Expression, Purification and Characterization” (Microorganisms, 2020)
